The source of these data is patent US20110212235A1, “ANTIMICROBIAL SALT SOLUTIONS FOR CHEESE PROCESSING APPLICATIONS” (priority 2006, published 2011).

Common to all, as to format: cell-based
Assay [1] deals with wild type coliforms from cheese plant brine. The experiment in a line: Coliforms procedure in cheese brine or buffered solution. The note with it: for Coliforms count: Table 21 (sodium octanoate experiment). How it is done:
(§1) In the present example, cultures of various microorganisms native to actual process brines used in cheese manufacture were obtained from a cheese plant. The cultures of yeast, mold, and coliforms were grown and used to test the efficacy of various antimicrobial additives in blue cheese brines. Organism cultures included four different types of yeast (three distinct while yeast cultures and a pink yeast), a black mold culture, a coliform culture, a culture of mixed green mold and yeast that were not separated, and a culture that was identified by the cheese plant as heterofermentative lactic acid bacteria, although no actual identification of the strain was carried out.
Coliforms Procedure: • 1. Inoculate a separate tube containing 10 ml of Brain Heart Infusion (BHI) broth for each wild type coliforms 1 and 2. Incubate for 24+/−2 hours at 35° C.+/−2° C. • 2. Assume growth to be 10^9 cfu/ml. Since two cultures are being used, combine 5.5 ml of each culture added to 99 ml of cold Butterfield's Phosphate Buffered Water (PBW) to obtain 10^8 cfu/ml. • 3. Plate serial ten-fold dilutions of the culture to get the starting count of the inoculum on Violet Red Bile Agar (VRBA). • 4. Add 1 ml of the diluted cocktail to 100 ml of cold test solution. • 5. Determine the population at time 0 and 4 hours by plating serial dilutions to VRBA spread plates. • 6. Incubate the test solutions at 10° C.+/−2° C. for the duration of the experiment. • 7. Incubate the plates at 20° C.+/−2° C. for 72+/−2 hours. • 8. Count representative colonies and multiply by the dilution factor. Note: Each test solution should contain ˜10^8 cfu/ml.
(§2) The brines were treated with different concentrations of octanoic acid and then challenged with a yeast cocktail (which included the pink and 3 different white mold types), the green mold+yeast combination, and coliforms.

For another assay, the system named is Pink Yeast. The experiment in a line: Yeast challenge, pink yeast. As for the experimental part: (§3) “Yeast” Procedure: • 1. Inoculate a separate tube containing 10 ml of Brain Heart Infusion (BHI) broth for each wild type (Raised, Rough and Flat white yeast along with a single pink yeast). Incubate for 5 days at 26° C.+/−2° C. • 2. Assume growth to be 10^7 cfu/ml. Since 4 cultures are being used, combine 2.75 ml of each culture added to 99 ml of cold Butterfield's Phosphate Buffered Water (PBW) to obtain 10^6 cfu/ml of yeast cocktail. • 3. Plate serial dilutions of the culture to get the starting count of the inoculum on Dichloran-Rose Bengal-Chloramphenicol Agar (DRBC). • 4. Add 1 ml of the diluted cocktail to 100 ml of cold test solution. • 5. Determine the population at time 0 and 4 hours. Spread plate serial dilutions to DRBC agar. • 6. Incubate the test solutions at 10° C.+/−2° C. for the duration of the experiment. • 7. Incubate the plates at 20° C.+/−2° C. for 5 days+/−2 hours. • 8. Count representative colonies and multiply by the dilution factor. Note: Each test solution should contain ˜10^4 cfu/ml.
(§4) In order to determine if the effect of the additive was repeatable, more challenge tests were run on samples of process brine. […] In this test the solutions were challenged with two distinct yeast (a white and a pink) types and coliforms from the samples sent by the cheese plant.

A further assay deals with black mold. The experiment in a line: “Mold” procedure, black mold. Conditions: after 4 hours in blue cheese brine; Table 20; inoculum 2.5 × 10^4 (est). As for the experimental part:
as §1
(§5) “Mold” Procedure: • 1. From refrigerated stock mold cultures, take 1 ml from black mold dilution bottle added to 99 ml of cold Butterfield's Phosphate Buffered Water (PBW) to obtain 10^5 cfu/ml. • 2. Take 1 ml from green mold/white yeast mixture dilution bottle added to 99 ml of cold Butterfield's Phosphate Buffered Water (PBW) to obtain 10^6 cfu/ml. • 3. Plate serial dilutions of the cultures to get the starting count of the inoculum on Dichloran-Rose Bengal-Chloramphenicol Agar (DRBC). • 4. Add 1 ml of the diluted mold culture to 100 ml of cold test solution (do separately for each of the two mold cultures). • 5. Determine the population at time 0 and 4 hours. Spread plate serial dilutions to DRBC agar. • 6. Incubate the test solutions at 10° C.+/−2° C. for the duration of the experiment. • 7. Incubate the plates at 20° C.+/−2° C. for 5 days+/−2 hours. • 8. Count representative colonies and multiply by the dilution factor. Note: For black mold, each test solution should contain ˜10^3 cfu/ml. For green mold/white yeast mixture, each test solution should contain ˜10^4 cfu/ml.

For assay [2], the system named is green mold/white yeast mixture. The experiment in a line: “Mold” procedure, green mold/white yeast mixture. Conditions: for Green Mold + Yeast count: after 4 hours in blue cheese brine, Table 20, inoculum 5.8 × 10^6 (est). How it is done: as §1, §5
Screening tests identified octanoic acid as a promising antimicrobial additive for salt brines. Table 16 gives results of a challenge test run on actual blue cheese and mozzarella process brine samples sent from a cheese plant. The brines were treated with different concentrations of octanoic acid and then challenged with a yeast cocktail (which included the pink and 3 different white mold types), the green mold+yeast combination, and coliforms. […] The plate counts listed parenthetically as (est) were too numerous to count and were estimated.

Assay [3] relates to yeast cocktail (Raised, Rough and Flat white yeast and a pink yeast). In words: “Yeast” procedure, yeast cocktail.
Source text: In the present example, cultures of various microorganisms native to actual process brines used in cheese manufacture were obtained from a cheese plant. […] Organism cultures included four different types of yeast (three distinct while yeast cultures and a pink yeast), a black mold culture, a coliform culture, a culture of mixed green mold and yeast that were not separated, and a culture that was identified by the cheese plant as heterofermentative lactic acid bacteria, although no actual identification of the strain was carried out.
as §3, §2

The subject of the next assay is White Yeast. The experiment in a line: Yeast challenge, white yeast. As for the experimental part: as §3, §4
Assay [4] has as its system heterofermentative lactic acid bacteria (not identified). The experiment in a line: “Lactic Bacteria” procedure in cheese brine. The note with it: after 4 hours in blue cheese brine; Table 20; inoculum 1.2 × 10^7 (est). As for the experimental part: as §1
“Lactic Bacteria” Procedure: • 1. Inoculate a separate tube containing 10 ml of Brain Heart Infusion (BHI) broth for each wild type tactics 1 and 2. Incubate for 72+/−2 hours at 30° C.+/−2° C. • 2. Assume growth to be 10^9 cfu/ml. Since two cultures are being used, combine 5.5 ml of each culture added to 99 ml of cold Butterfield's Phosphate Buffered Water (PBW) to obtain 10^8 cfu/ml. • 3. Plate serial dilutions of the culture to get the starting count of the inoculum on Lactobacilli MRS Agar (MRSA). • 4. Add 1 ml of the diluted cocktail to 100 ml of cold test solution. • 5. Determine the population at time 0 and 4 hours. Plate serial dilutions using MRSA spread plates. • 6. Incubate the test solutions at 10° C.+/−2° C. for the duration of the experiment. • 7. Incubate the plates at 30° C.+/−2° C. for 72+/−2 hours. • 8. Count representative colonies and multiply by the dilution factor. Note: Each test solution should contain ˜10^8 cfu/ml.
In this experiment solutions were challenged with cultures of the black mold, the green mold/yeast combination, and the bacteria thought to be “lactic acid” bacteria. In this experiment, a brine control with no additive was neglected, but the data still indicate the strong effectiveness of the octanoic acid against yeast and mold.

For assay [5], the system named is wild type coliforms from cheese plant brine. The experiment in a line: Coliforms procedure in cheese brine or buffered solution. The note with it: after 4 hours in mozzarella cheese brine.
The mark [6] stands for this setting: after 4 hours at 10° C. in blue cheese brine, Table 16.
The mark [7] stands for this setting: after 4 hours in blue cheese brine, Table 18.
Setting [8] is: after 4 hours in blue cheese brine.
Where [9] appears, read: after 4 hours in blue cheese brine, Table 21 (sodium octanoate experiment).
Where [10] appears, read: after 4 hours in mozzarella cheese brine, Table 19.
Setting [11] is: after 4 hours in mozzarella cheese brine, Table 17.
[12] abbreviates: Table 17, (est) = too numerous to count, estimated.

In the case of `CCCCCCCC(=O)O` [250 ppm octanoic acid, octanoic acid], the Coliform count in assay [1] (setting [6]) is on record as less than 10 cfu/mL; in assay [1] (setting [7]) it was less than 10 cfu/mL; in assay [5] (setting [12]), 1.7 × 10^6 cfu/mL; in assay [5] (Table 19) it was 3.8 × 10^3 cfu/mL. Further, the Coliforms count in assay [1] (setting [8]) is less than 10 cfu/mL. For the same molecule, the “Pink Yeast count” value with Pink Yeast (setting [7]), in the assay on Pink Yeast (setting [9]) and in the assay with Pink Yeast (setting [10]) was less than 10 cfu/mL each time. For the same molecule, the “Black Mold count” value with black mold was less than 10 cfu/mL. Besides, the entries for the “Yeast + Mold count” value in assay [2] (setting [6]) and in assay [2] (setting [11]) were less than 10 cfu/mL and 6.1 × 10^4 cfu/mL, respectively. Further, in assay [2], the “Green Mold + Yeast count” value is less than 10 cfu/mL. For the same molecule, the results for the “Yeast Cocktail count” value in assay [3] (setting [6]) and in assay [3] (setting [11]) were less than 10 cfu/mL and 200 cfu/mL, respectively. The “White Yeast count” value with White Yeast (setting [7]), in the assay on White Yeast (setting [9]) and with White Yeast (setting [10]) was less than 10 cfu/mL in each case. Moreover, in assay [4], the ““Lactics” count” value is on record as less than 10 cfu/mL.

Regarding `CCCCCCCC(=O)O` [500 ppm octanoic acid, octanoic acid], the Coliform count is less than 10 cfu/mL in assay [1] (setting [6]), less than 10 cfu/mL in assay [1] (setting [7]), 3.5 × 10^4 cfu/mL in assay [5] (setting [12]) and 3.8 × 10^3 cfu/mL in assay [5] (Table 19). Further, in assay [1] (setting [8]), the Coliforms count is recorded as less than 10 cfu/mL. The “Pink Yeast count” value in the assay on Pink Yeast (setting [7]) is reported as less than 10 cfu/mL; in the assay on Pink Yeast (setting [9]) it was less than 10 cfu/mL; with Pink Yeast (setting [10]) it was 20 cfu/mL. Further, the “Black Mold count” value with black mold is on record as less than 10 cfu/mL. Also, the figures for the “Yeast + Mold count” value in assay [2] (setting [6]) and in assay [2] (setting [11]) were less than 10 cfu/mL and 5.6 × 10^3 cfu/mL, respectively. Besides, the “Green Mold + Yeast count” value in assay [2] is on record as less than 10 cfu/mL. Besides, the “Yeast Cocktail count” value in assay [3] (setting [6]) and in assay [3] (setting [11]) was less than 10 cfu/mL in each case. Moreover, the “White Yeast count” value in the assay with White Yeast (setting [7]), in the assay on White Yeast (setting [9]) and in the assay on White Yeast (setting [10]) was less than 10 cfu/mL in each case. For the same molecule, in assay [4], the ““Lactics” count” value was less than 1 cfu/mL.

Take `CCCCCCCC(=O)O` [125 ppm octanoic acid, octanoic acid]: the Coliform count in assay [1] (setting [6]) is listed as 10 cfu/mL; in assay [1] (setting [7]), less than 10 cfu/mL; in assay [5] (setting [12]), ~3.0 × 10^6 (est) cfu/mL; in assay [5] (Table 19), 1.6 × 10^4 cfu/mL. For the same molecule, the Coliforms count in assay [1] (setting [8]) is less than 10 cfu/mL. The “Pink Yeast count” value in the assay on Pink Yeast (setting [7]), with Pink Yeast (setting [9]) and in the assay on Pink Yeast (setting [10]) was less than 10 cfu/mL in each case. In the assay on black mold, the “Black Mold count” value is recorded as less than 10 cfu/mL. Also, the “Yeast + Mold count” value in assay [2] (setting [6]) was 20 cfu/mL; in assay [2] (setting [11]) it was 4.1 × 10^5 cfu/mL. Moreover, the “Green Mold + Yeast count” value in assay [2] is less than 10 cfu/mL. Further, the entries for the “Yeast Cocktail count” value in assay [3] (setting [6]) and in assay [3] (setting [11]) were less than 10 cfu/mL and 6.0 × 10^3 cfu/mL, respectively. Besides, the figures for the “White Yeast count” value with White Yeast (setting [7]), in the assay with White Yeast (setting [9]) and with White Yeast (setting [10]) were less than 10 cfu/mL, less than 10 cfu/mL and 60 cfu/mL, respectively. In assay [4], the ““Lactics” count” value was 2.0 × 10^3 cfu/mL.
